Reference: patent US20120259123A1, “AMINOPYRIDINE COMPOUND” (UBE INDUSTRIES, LTD., priority 2009, published 2012)
Where a name gives a salt, the structure may show the parent alone.

What was measured:
[1] = biological target: T1, human EP2 receptor (Homo sapiens, UniProt P43116); assay: Measurement of EP2 receptor binding affinity ([3H]PGE2 displacement); settings: read-out: Ki value of EP2 receptor binding affinity
T1 construct: purchased Euroscreen S.A. ES-562-M; host or cells: HEK293 cells
Procedure: Measurement of EP2 receptor binding affinity was carried out according to the method of Abramovitz et al. (Biochimica et Biophysica Acta, 1483, 285 (2000)). […] The membrane fraction was recovered on glass fiber filter paper (GF/B, available from Whatman PLC) using a cell harvester […], available from Brandel Inc.), and after washing with a buffer solution (10 mM MES-KOH (pH 6.0), 10 mM MgCl2), radioactivity was measured with a liquid scintillation analyzer (2000CA, available from Packard). […] The dissociation constant (Kd value) was calculated by Scatchard analysis.

[2] = biological target: T1, human EP2 receptor; assay: Measurement of EP2 agonist activity (cAMP amount in cells); format: cell-based; settings: HEK 293 cells expressing human EP2 receptor, cAMP increase, 30 minutes
Procedure: Measurement of EP2 agonist activity was carried out according to the method of Wilson et al. (European Journal of Pharmacology, 501, 49 (2004)). […] On the next day, the medium was replaced with serum-free MEM medium containing 3-isobutyl-1-methylxanthine (final concentration: 500 μM) and after culturing for 30 minutes, a test compound dissolved in dimethylsulfoxide was added and the medium was allowed to stand in a carbon dioxide gas incubator. After 30 minutes, an amount of cAMP in the cells was measured with a cAMP Biotrak EIA System kit (available from GE Healthcare Bioscience).

T1 sequence (P43116 whole entry): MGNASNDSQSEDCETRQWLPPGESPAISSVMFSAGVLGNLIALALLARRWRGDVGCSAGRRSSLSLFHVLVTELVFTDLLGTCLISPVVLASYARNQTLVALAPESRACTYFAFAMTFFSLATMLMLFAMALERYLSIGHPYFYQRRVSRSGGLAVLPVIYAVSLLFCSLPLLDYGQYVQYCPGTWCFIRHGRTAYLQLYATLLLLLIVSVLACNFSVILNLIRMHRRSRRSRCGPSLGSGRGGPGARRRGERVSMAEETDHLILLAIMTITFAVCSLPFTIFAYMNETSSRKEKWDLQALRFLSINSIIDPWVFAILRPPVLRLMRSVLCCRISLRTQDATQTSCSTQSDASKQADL

| SMILES | Ki [1] [nM] | EC50 [2] [nM] |
| --- | --- | --- |
| CCCCC(C)(C)c1ccc(CN(Cc2cccc(NCC(=O)O)n2)S(=O)(=O)c2cccs2)cc1 [Example 48, (6-{[4-(1,1-Dimethylpentyl)benzyl](thiophen-2-ylsulfonyl)aminomethyl}pyridin-2-ylamino)acetic acid] | 6.4 |  |
| CCC1(c2ccc(CN(Cc3cccc(NCC(=O)O)n3)S(=O)(=O)c3cccnc3)cc2)CC1 [Example 7, (6-{[4-(1-Ethylcyclopropyl)benzyl](pyridin-3-ylsulfonyl)aminomethyl}pyridin-2-ylamino)acetic acid] | 8.3 | 4.5 |
| CCCCC1(c2ccc(CN(Cc3cccc(NCC(=O)O)n3)S(=O)(=O)c3cccnc3)cc2)CC1 [Example 10, 6-{[4-(1-Butylcyclopropyl)benzyl](pyridin-3-ylsulfonyl)aminomethyl}pyridin-2-ylamino)acetic acid hydrochloride] | 11 | 4.2 |
| CCCCC1(c2ccc(CN(Cc3cccc(NCC(=O)O)n3)S(=O)(=O)c3ccncc3)cc2)CC1 [Example 16, (6-{[4-(1-Butylcyclopropyl)benzyl](pyridin-4-ylsulfonyl)aminomethyl}pyridin-2-ylamino)acetic acid] | 6.1 | 6.3 |
| CC(C)(C)c1ccc(CN(Cc2cccc(NCC(=O)O)n2)S(=O)(=O)c2ccccc2)cc1 [Example 21, {6-[(Benzenesulfonyl)(4-tert-butylbenzyl)aminomethyl]pyridin-2-ylamino}acetic acid hydrochloride] |  | 4.3 |
| CC(C)(C)c1ccc(CN(Cc2cccc(NCC(=O)O)n2)S(=O)(=O)c2cccnc2)cc1 [Example 35, {6-[(4-tert-Butylbenzyl)(pyridin-3-ylsulfonyl)aminomethyl]pyridin-2-ylamino}acetic acid hydrochloride] |  | 2.8 |
| CC(C)(C)c1ccc(CN(Cc2cccc(NCC(=O)O)n2)S(=O)(=O)c2ccccn2)cc1 [Example 23, {6-[(4-tert-Butylbenzyl)(pyridin-2-ylsulfonyl)aminomethyl]pyridin-2-ylamino}acetic acid hydrochloride] |  | 2.7 |
| CC1(c2ccc(CN(Cc3cccc(NCC(=O)O)n3)S(=O)(=O)c3cccnc3)cc2)CC1 [Example 5, (6-{[4-(1-Methylcyclopropyl)benzyl](pyridin-3-ylsulfonyl)aminomethyl}pyridin-2-ylamino)acetic acid hydrochloride] |  | 2.6 |
| CCCCC(C)(C)c1ccc(CN(Cc2cccc(NCC(=O)O)n2)S(=O)(=O)c2ccc(F)cc2)s1 [Example 3, (6-{(4-Fluorobenzenesulfonyl)[5-(1,1-dimethylpentyl)thiophen-2-ylmethyl]aminomethyl}pyridin-2-ylamino)acetic acid] | 1.8 | 6 |
| CCCCC(C)(C)c1ccc(CN(Cc2cccc(NCC(=O)O)n2)S(=O)(=O)c2ccncc2)cc1 [Example 43, (6-{[4-(1,1-Dimethylpentyl)benzyl](pyridin-4-ylsulfonyl)aminomethyl}pyridin-2-ylamino)acetic acid] | 3.6 |  |
| CCC(C)(C)c1ccc(CN(Cc2cccc(NCC(=O)O)n2)S(=O)(=O)c2ccccn2)cc1 [Example 28, {6-[(4-tert-Pentylbenzyl)(pyridin-2-ylsulfonyl)aminomethyl]pyridin-2-ylamino}acetic acid hydrochloride] | 9.8 | 6.4 |
| CC(C)(C)c1ccc(CN(Cc2cccc(NCC(=O)O)n2)S(=O)(=O)c2ccc(Cl)cc2)cc1 [Example 33, {6-[(4-tert-Butylbenzyl)(4-chlorobenzenesulfonyl)aminomethyl]pyridin-2-ylamino}-acetic acid hydrochloride] | 4.4 | 4.4 |
| CCC1(c2ccc(CN(Cc3cccc(NCC(=O)O)n3)S(=O)(=O)c3ccc(F)cc3)cc2)CC1 [Example 14, (6-{[4-(1-Ethylcyclopropyl)benzyl](4-fluorobenzenesulfonyl)aminomethyl}pyridin-2-ylamino)acetic acid] |  | 8 |
| CCC(C)(C)c1ccc(CN(Cc2cccc(NCC(=O)O)n2)S(=O)(=O)c2ccccn2)s1 [Example 4, {6-[(5-tert-Pentylthiophen-2-ylmethyl)(pyridin-2-ylsulfonyl)aminomethyl]pyridin-2-ylamino}acetic acid] | 3.4 | 7 |
| CCC1(c2ccc(CN(Cc3cccc(NCC(=O)O)n3)S(=O)(=O)c3ccccn3)cc2)CC1 [Example 6, (6-{[4-(1-Ethylcyclopropyl)benzyl](pyridin-2-ylsulfonyl)aminomethyl}pyridin-2-ylamino)acetic acid] |  | 5.4 |
| CC(C)(C)c1ccc(CN(Cc2cccc(NCC(=O)O)n2)S(=O)(=O)c2ccc(F)cc2)cc1 [Example 30, {6-[(4-tert-Butylbenzyl)(4-fluorobenzenesulfonyl)aminomethyl]pyridin-2-ylamino}-acetic acid hydrochloride] | 8.3 | 2.7 |
| CCCCC(C)(C)c1ccc(CN(Cc2cccc(NCC(=O)O)n2)S(=O)(=O)c2cccnc2)cc1 [Example 46, (6-{[4-(1,1-Dimethylpentyl)benzyl](pyridin-3-ylsulfonyl)aminomethyl}pyridin-2-ylamino)acetic acid] | 3.3 |  |
| CCC(CC)c1ccc(CN(Cc2cccc(NCC(=O)O)n2)S(=O)(=O)c2cccnc2)cc1 [Example 27, (6-{[4-(1-Ethylpropyl)benzyl](pyridin-3-ylsulfonyl)aminomethyl}pyridin-2-ylamino)-acetic acid] |  | 6.9 |
| CC(C)(C)Cc1ccc(CN(Cc2cccc(NCC(=O)O)n2)S(=O)(=O)c2ccccn2)cc1 [Example 29, {6-[(4-Neopentylbenzyl)(pyridin-2-ylsulfonyl)aminomethyl]pyridin-2-ylamino}acetic acid hydrochloride] |  | 5 |
| CCCC=C(C)c1ccc(CN(Cc2cccc(NCC(=O)O)n2)S(=O)(=O)c2ccccn2)cc1 [Example 24, (6-{[4-(1-Methyl-1-pentenyl)benzyl](pyridin-2-ylsulfonyl)aminomethyl}pyridin-2-ylamino)acetic acid] |  | 4.5 |
| CCCCC(C)(C)c1ccc(CN(Cc2cccc(NCC(=O)O)n2)S(=O)(=O)c2cccc(F)c2)cc1 [Example 60, (6-{(3-Fluorobenzenesulfonyl)[4-(1,1-dimethylpentyl)benzyl]aminomethyl}pyridin-2-ylamino)acetic acid] |  | 5.5 |
| CCCCC(C)(C)c1ccc(CN(Cc2cccc(NCC(=O)O)n2)S(=O)(=O)c2ccccn2)c(F)c1 [Example 55, (6-{[2-Fluoro-4-(1,1-dimethylpentyl)benzyl](pyridin-2-ylsulfonyl)aminomethyl}pyridin-2-ylamino)acetic acid] | 2.1 | 7 |
| CCCCC(C)c1ccc(CN(Cc2cccc(NCC(=O)O)n2)S(=O)(=O)c2ccccn2)cc1 (centres unmarked) [Example 40, (6-{[4-(1-Methylpentyl)benzyl](pyridin-2-ylsulfonyl)aminomethyl}pyridin-2-ylamino)-acetic acid] | 5.3 | 2.8 |
| CC(C)(C)c1ccc(CN(Cc2cccc(NCC(=O)O)n2)S(=O)(=O)c2cccc(F)c2)cc1 [Example 31, {6-[(4-tert-Butylbenzyl)(3-fluorobenzenesulfonyl)aminomethyl]pyridin-2-ylamino}-acetic acid hydrochloride] | 8.6 | 6.1 |
